Measurements taken from the supplement of paper PMC11061612.

How the values were obtained:
Assay in all cases: combination Emax (second highest fraction inhibited in the dose matrix, 72 h); higher = more inhibition; extreme values may be limits of the assay
NCI-H2795 (Mesothelioma) = test system: NCI-H2795 (Mesothelioma)
How it was run: (§1)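 Cell lines in DMEM/F12 or RPMI with 10% FBS were plated in 1536-well plates, held 24 hours at 37°C, 5% CO2, then given two-drug dose matrices for 72 hours (DMSO typically 0.2%). Viability was read by CellTiter-Glo 2.0 luminescence and scaled as inhibition from 0 (vehicle wells) to 1 (blank wells). Combination Emax is the second-highest inhibition in the matrix; Bliss excess is observed combination effect minus expected EA + EB − EA·EB, EA and EB being single-agent effects.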

[1] = test system: RT-112 (Bladder Carcinoma)
How it was run: as §1

[2] = test system: SU-DHL-6 (B-Cell Non-Hodgkin's Lymphoma)
How it was run: as §1

[3] = test system: 8305C (Thyroid Gland Carcinoma)
How it was run: as §1

[4] = test system: K5 (Thyroid Gland Carcinoma)
How it was run: as §1

[5] = test system: HO-1-u-1 (Oral Cavity Carcinoma)
How it was run: as §1

[6] = test system: CAL-51 (Breast Carcinoma)
How it was run: as §1

Mewo (Melanoma) = test system: Mewo (Melanoma)
How it was run: as §1

[7] = test system: Hs-633T (Other Solid Carcinomas)
How it was run: as §1

[8] = test system: KYSE-410 (Esophageal Squamous Cell Carcinoma)
How it was run: as §1

[9] = test system: OC-314 (Ovarian Carcinoma)
How it was run: as §1

[10] = test system: 639-V (Bladder Carcinoma)
How it was run: as §1

NCI-H2461 (Mesothelioma) = test system: NCI-H2461 (Mesothelioma)
How it was run: as §1

[11] = test system: OVCAR-8 (Ovarian Carcinoma)
How it was run: as §1

[12] = test system: CTB-1 (B-Cell Non-Hodgkin's Lymphoma)
How it was run: as §1

[13] = test system: NCI-H747 (Colorectal Carcinoma)
How it was run: as §1

[14] = test system: HDLM-2 (Hodgkin's Lymphoma)
How it was run: as §1

[15] = test system: MDA-MB-468 (Breast Carcinoma)
How it was run: as §1

[16] = test system: SW626 (Colorectal Carcinoma)
How it was run: as §1

[17] = test system: UMC-11 (Other Solid Carcinomas)
How it was run: as §1

Row | Compound | combination Emax (NCI-H2795 (Mesothelioma)) | combination Emax [1] | combination Emax [2] | combination Emax [3] | combination Emax [4] | combination Emax [5] | combination Emax [6] | combination Emax (Mewo (Melanoma)) | combination Emax [7] | combination Emax [8] | combination Emax [9] | combination Emax [10] | combination Emax (NCI-H2461 (Mesothelioma)) | combination Emax [11] | combination Emax [12] | combination Emax [13] | combination Emax [14] | combination Emax [15] | combination Emax [16] | combination Emax [17]
1 | CN(CCO)CC[C@H](CSc1ccccc1)Nc1ccc(S(=O)(=O)NC(=O)c2ccc(N3CCC([C@@H](O)c4ccccc4-c4ccc(Cl)cc4)CC3)cc2)cc1S(=O)(=O)C(F)(F)F [AZD4320] + C=CCn1c(=O)c2cnc(Nc3ccc(N4CCN(C)CC4)cc3)nc2n1-c1cccc(C(C)(C)O)n1 [AZD1775] (first compound max 1 µM, partner max 1 µM) | 0.53 | 0.744 | 1 | 0.7 | 0.485 | 0.897 | 0.907 | 0.548 | 0.856 | 0.796 | 0.619 | 0.377 | 0.782 | 0.908 | 0.862 | 0.446 | 0.989 | 0.799 | 0.748 | 0.632
2 | Cc1cc2ncnn2cc1Nc1ncc2c(n1)n(C1CCOCC1)c(=O)n2C [AZD7648] + CN(C)CCCOc1ccc(-c2ccc3ncc4c(c3c2)n(C2CCOCC2)c(=O)n4C)cn1 [AZD0156] (first compound max 10 µM, 7x7, partner max 1 µM) | 0.469 | 0.317 | 0.621 | 0.414 | 0.501 | 0.39 | 0.274 | 0.285 | 0.37 | 0.178 | 0.348 | 0.239 | 0.448 | 0.213 | 0.404 | 0.387 | 0.368 | 0.353 | 0.284 | 0.21
3 | CN(CCO)CC[C@H](CSc1ccccc1)Nc1ccc(S(=O)(=O)NC(=O)c2ccc(N3CCC([C@@H](O)c4ccccc4-c4ccc(Cl)cc4)CC3)cc2)cc1S(=O)(=O)C(F)(F)F [AZD4320] + C[C@@H]1COCCN1C2=NC(=NC(=C2)C3(CC3)[S@](=N)(=O)C)C4=C5C=CNC5=NC=C4 [AZD6738] (first compound max 1 µM, 7x7, partner max 10 µM) | 0.844 | 0.863 | 0.951 | 0.834 | 0.702 | 0.926 | 0.919 | 0.647 | 0.946 | 0.421 | 0.909 | 0.665 | 0.838 | 0.796 | 0.768 | 0.333 | 0.926 | 0.842 | 0.869 | 0.806
4 | CN(CCO)CC[C@H](CSc1ccccc1)Nc1ccc(S(=O)(=O)NC(=O)c2ccc(N3CCC([C@@H](O)c4ccccc4-c4ccc(Cl)cc4)CC3)cc2)cc1S(=O)(=O)C(F)(F)F [AZD4320] + C1CN(CCC1(C(=O)N[C@@H](CCO)C2=CC=C(C=C2)Cl)N)C3=NC=NC4=C3C=CN4 [Capivasertib] (first compound max 1 µM, 7x7, partner max 3 µM) | 0.271 | 0.147 | 1 | 0.506 | 0.499 | 0.744 | 0.504 | 0.204 | 0.298 | 0.0467 | 0.261 | 0.154 | 0.429 | 0.146 | 0.295 | 0.387 | 0.841 | 0.821 | 0.643 | 0.508
